# Source: patent US20050101674A1, “PPMP as a ceramide catabolism inhibitor for cancer treatment” (priority 2003, published 2005)
# Read-outs that look alike come from different tables or passages of the source.
# Experiments:
# [1] = system: PC-3 prostate cancer cells; assay: DIMSCAN cytotoxicity assay in PC-3 cells; format: cell-based; conditions: PC-3, combined with 4-HPR, +96 h
# Excerpt: (§1) In the following examples, the DIMSCAN assay is a cell survival assay, not merely an apoptosis assay, and therefore reflects cancer cell killing due to both apoptosis and necrosis. DIMSCAN correlates directly with more traditional clonogenic assays. Moreover, DIMSCAN drug resistance profiles of cell lines correlate with prior patient therapy. DIMSCAN has successfully predicted clinical activity in high-risk neuroblastoma patients for the following new agents: 13-cis-retinoic acid, BSO+L-PAM, and fenretinide. Cytotoxicity assays are performed in 96 well microplates using a semi automated Digital Image Microscopy (DIMSCAN) system that has a dynamic range of greater than 4-5 logs of cell kill. Briefly, following incubation with study drugs, fluorescein diacetate [10 μg/ml (a vital stain)] is added to the microplate and incubated for twenty minutes. Eosin-Y (800 μg/ml) is then added to quench background fluorescence in the medium and non-viable cells. The plates are then read on an inverted microscope with the relative fluorescence of each well determined by the video imaging system software designed for the DIMSCAN system. We have done comparison studies and have shown that the relative fluorescent values obtained by DIMSCAN correlate to cell density (standard counts by trypan blue exclusion) and clonogenicity assays. […]
# [2] = system: PC-3 prostate cancer cells; assay: Ceramide by [3H]-palmitic acid labeling and thin-layer chromatography, PC-3; conditions: PC-3, drug 10 μM, +24 h
# Description: Lipids were assayed by labeling with [^3H]-palmitic acid and thin-layer chromatography at +24 h. […] Synergy assayed by Combination Index (C.I.): synergy, C.I.<1; additive, C.I.=1; antagonism, C.I.>1. Statistical analysis is by student's t-test.
# [3] = system: SK-N-RA neuroblastoma cells; assay: Ceramide and glucosylceramide levels by [3H]-palmitic acid labeling and thin-layer chromatography, SK-N-RA; format: cell-based; conditions: for 4-HPR-induced glycosylceramide increase: FIG. 9 right panel; for 4-HPR-induced ceramide level / 4-HPR-induced glucosylceramide level: with 4-HPR 10 μM
# Description: Assays were performed at +24 h.
# SK-N-RA neuroblastoma cells were exposed to drugs at 10 μM concentrations for the time indicated.
# [4] = system: SK-N-RA neuroblastoma cells; assay: DIMSCAN cytotoxicity assay in SK-N-RA cells; format: cell-based; conditions: combined with 4-HPR, +96 h
# Excerpt: as §1, with “system.” for “system. We have done comparison studies and have shown that the relative fluorescent values obtained by DIMSCAN correlate to cell density (standard counts by trypan blue exclusion) and clonogenicity assays.”
# Survival fraction was measured using a digital imaging fluorescence-based microscopy assay (DIMSCAN) with approximately 5 log sensitivity. […]
# [5] = system: cell lines of neuroblastoma, PNET/Ewing's sarcoma, breast and lung cancer; assay: 4-HPR ceramide increase in tumor cell lines; format: cell-based
# Excerpt: (§2) 4-HPR has been reported to increase Reactive Oxygen Species (ROS) in certain, but not all, solid tumor cell lines and leukemia cell lines in vitro as a mechanism of cytotoxicity. […] We, therefore, have explored alternative mechanisms of 4-HPR cytotoxicity.
# [6] = low-dose 4-HPR; cited from earlier work
# [7] = pediatrics, oral, cited from earlier work
# [8] = system: variety of cancer cell lines; conditions: cancer cell lines in vitro; cited from earlier work
# [9] = Continuous venous infusion (c.i.v.) of 4-HPR in rats; format: in vivo
# Excerpt: Utilizing intravenous formulations, we have directly tested continuous venous infusion (c.i.v.) in rats. […] Accordingly, the anti-tumor activity of 4-HPR will be increased by other agents which modulate the metabolism of ceramide, such as inhibitors of glucosylceramide synthase and 1-O-acylceramide synthase.
# [10] = system: two neuroblastoma cell lines; assay: Reactive oxygen species in neuroblastoma cell lines; format: cell-based
# Excerpt: as §2
# [11] = Plasma levels after intravenous formulations of 4-HPR; format: in vivo
# [12] = system: six pediatric ALL cell lines; assay: 4-HPR and D,L-threo-PPMP cytotoxicity in ALL cell line panel; format: cell-based
# [13] = system: normal fibroblasts, peripheral blood mononuclear cells, EBV-immortalized lymphoid cell line; assay: 4-HPR ceramide in normal and non-transformed cells; format: cell-based; conditions: in vitro
# Excerpt: Accordingly, the ability of 4-HPR to increase ceramide by de novo synthesis is most likely a malignancy (transformed phenotype)-specific event. Further, high-dose 4-HPR will have a favorable therapeutic index in vivo. Moreover, second agents that inhibit ceramide catabolism will also have a favorable therapeutic index in combination with 4-HPR, as normal tissues will not increase ceramide in response to 4-HPR.
# [14] = adults, high-dose oral; cited from earlier work
# [15] = system: serine palmitoyltransferase; assay: Direct assay of enzymatic activity, serine palmitoyltransferase; format: biochemical
# Excerpt: (§3) We have determined in solid tumor and ALL cell lines in vitro, that the ceramide increased by 4-HPR treatment was derived from de novo synthesis.
# ceramide synthase = assay: Direct assay of enzymatic activity, ceramide synthase; format: biochemical
# Excerpt: as §3
# [16] = system: normal fibroblasts, bone marrow myeloid progenitors, peripheral blood mononuclear cells, EBV-immortalized lymphoblastoid cell line; assay: 4-HPR cytotoxicity in normal and non-malignant cells; format: cell-based; conditions: doses cytotoxic to cancer cell lines in vitro
# Excerpt: Having established the potential of high-dose 4-HPR to treat resistant neuroblastoma, in order to investigate the therapeutic index of 4-HPR, we examined the cytotoxicity of 4-HPR in normal and non-malignant cell lines in vitro. […] Accordingly, 4-HPR cytotoxicity is most likely a malignancy-specific event, and high-dose 4-HPR may have an acceptable therapeutic index in vivo.
# MOLT-4 = assay: DIMSCAN cytotoxicity, ALL cell line MOLT-4; format: cell-based; conditions: MOLT-4, 4-HPR+PPMP 1:1 molar ratio, +96 hours
# Excerpt: as §1
# CEM = assay: DIMSCAN cytotoxicity, ALL cell line CEM; format: cell-based; conditions: 4-HPR+PPMP 1:1 molar ratio, +96 hours
# Excerpt: as §1
# MOLT-3 = assay: DIMSCAN cytotoxicity, ALL cell line MOLT-3; format: cell-based; conditions: MOLT-3, 4-HPR+PPMP 1:1 molar ratio, +96 hours
# Excerpt: as §1
# intact cells = conditions: in intact cells; cited from earlier work
# SMS-SB = assay: DIMSCAN cytotoxicity, ALL cell line SMS-SB; format: cell-based; conditions: 4-HPR+PPMP 1:1, +96 hours
# Excerpt: (§4) In the following examples, the DIMSCAN assay is a cell survival assay, not merely an apoptosis assay, and therefore reflects cancer cell killing due to both apoptosis and necrosis. DIMSCAN correlates directly with more traditional clonogenic assays. Moreover, DIMSCAN drug resistance profiles of cell lines correlate with prior patient therapy. DIMSCAN has successfully predicted clinical activity in high-risk neuroblastoma patients for the following new agents: 13-cis-retinoic acid, BSO+L-PAM, and fenretinide. Cytotoxicity assays are performed in 96 well microplates using a semi automated Digital Image Microscopy (DIMSCAN) system that has a dynamic range of greater than 4-5 logs of cell kill. Briefly, following incubation with study drugs, fluorescein diacetate [10 μg/ml (a vital stain)] is added to the microplate and incubated for twenty minutes. Eosin-Y (800 μg/ml) is then added to quench background fluorescence in the medium and non-viable cells. The plates are then read on an inverted microscope with the relative fluorescence of each well determined by the video imaging system software designed for the DIMSCAN system. We have done comparison studies and have shown that the relative fluorescent values obtained by DIMSCAN correlate to cell density (standard counts by trypan blue exclusion) and clonogenicity assays. The present invention is explained in greater detail in the following non-limiting examples.
# (§5) Assayed by DIMSCAN at +96 hours. •=4-HPR; ▪=PPMP; □=4-HPR+PPMP; (1:1 molar ratio).
# NALL-1 = assay: DIMSCAN cytotoxicity, ALL cell line NALL-1; format: cell-based; conditions: 4-HPR+PPMP 1:1, +96 hours
# Excerpt: as §4, §5
# NALM-6 = assay: DIMSCAN cytotoxicity, ALL cell line NALM-6; format: cell-based; conditions: NALM-6, 4-HPR+PPMP 1:1 molar ratio, +96 hours
# Excerpt: as §1
# ALL cell lines = assay: Glucosylceramide and ceramide in ALL cell lines; conditions: ALL cell lines examined
# neuroblastoma cell lines = assay: Toxicity of de novo ceramide synthesis inhibitors to neuroblastoma cell lines; format: cell-based
# [17] = system: MCF-7/tet breast cancer cells
# Description: MCF-7/tet breast cancer cells exposed to ethanol (controls), 4-HPR(H) or 4-HPR+safingol (3:1 ratio)(H+S), without or with preincubation with L-cycloserine (2 mM)(+C) and assayed by DIMSCAN assay at +96 hrs. 4-HPR (•); 4-HPR/L-cycloserine (O); 4-HPR/safingol (3:1)(▾); 4-HPR/safingol/L-cycloserine (∇); L-cycloserine (2 mM) (□).
# [18] = system: solid tumor and ALL cell lines; assay: Effect of de novo ceramide synthesis inhibitors on 4-HPR-induced ceramide; format: cell-based; conditions: in vitro
# Excerpt: as §3
# [19] = system: Ehrlich ascites tumor cells xenografts; conditions: in vivo; cited from earlier work
# [20] = in vivo; cited from earlier work
# [21] = rodents, x 10 days; cited from earlier work
# [22] = system: human neuroblastoma murine xenograft; assay: Human neuroblastoma murine xenograft models; format: in vivo; conditions: combined with 4-HPR
molecule,measurement,setting,value
"CCCCCCCCCCCCCCCC(=O)NC(CN1CCOCC1)C(O)c1ccccc1 (single isomer, unassigned) [D-threo-PPMP, D-threo-stereoisomer of 1-phenyl-2-palmitoylamino-3-morpholino-1-propanol]",Combination Index (C.I.) of cytotoxic synergy with 4-HPR,[1],< 1
same,ceramide in 4-HPR-treated cells,[2],increased ceramide
same,4-HPR-induced ceramide,"[3]; drugs at 10 μM, FIG. 9 left panel, preliminary",increased 4-HPR-induced ceramide more than did L-threo-PPMP
same,4-HPR-induced glycosylceramide increase,"[3]; drugs at 10 μM, preliminary",prevented
same,synergy of 4-HPR cytotoxicity (in words),[4],synergizes 4-HPR cytotoxicity more potently than does L-threo-PPMP
"CC1=C(/C=C/C(C)=C/C=C/C(C)=C/C(=O)Nc2ccc(O)cc2)C(C)(C)CCC1 [4-HPR, N-(4-hydroxyphenyl)retinamide]",increase of ceramide,"[5]; dose- and time-dependent, in vitro, 'up to'",up to 13 fold
same,time at which ceramide increase began,[5]; post exposure,less than 2 hrs
same,reduction in premalignant oral lesions (leukoplakia),[6],30%
same,maximally tolerated dose (MTD),[7]; 7 days every 3 weeks,2475 mg/m^2/day
same,systemic toxicity,[7]; at MTD,minimal systemic toxicity
same,4-HPR concentrations that are cytotoxic,[8],1 to 12 µM
same,levels of 4-HPR in plasma and tissues,[9],"high, sustained levels"
same,Reactive Oxygen Species (ROS),[10],increased ROS
same,systemic toxicity,"[11]; dog, in vivo, iv",minimal systemic toxicity
same,4-HPR plasma levels,"[11]; intravenous formulations, rodent and canine models",50 to 150 µM
same,ceramide level,"[3]; 4-HPR 10 μM alone, +24 h",modestly increased
same,4-HPR cytotoxicity,[12]; all six tested ALL cell lines in vitro,multi-log cytotoxicity
same,ceramide in normal and non-transformed cells,[13],only minimally increased ceramide
same,recommended 'practical' dose for Phase II studies,[14],1800 mg/m^2/day
same,serine palmitoyltransferase activity,[15],stimulated the activities
same,ceramide synthase activity,ceramide synthase,stimulated the activities
same,toxicity to normal and non-malignant cells,[16],minimally toxic
"CCCCCCCCCCCCCCCC(=O)NC(CN1CCOCC1)C(O)c1ccccc1 [D,L-erythro-PPMP]",4-HPR-induced ceramide level,[3]; +24 h,further increased
same,4-HPR-induced glucosylceramide level,[3]; +24 h,did not affect
"CCCCCCCCCCCCCCCC(=O)NC(CN1CCOCC1)C(O)c1ccccc1 [D,L-threo-PPMP, D,L-threo-(1-phenyl-2-hexadecanoylamino-3-morpholino-1-propanol)]",Combination Index (C.I.),MOLT-4,< 1
same,Combination Index (C.I.),CEM,1
same,Combination Index (C.I.),MOLT-3,< 1
same,activity relative to PDMP,intact cells,10-20 times
same,4-HPR-induced ceramide level,[3]; +24 h,even more strongly increased
same,4-HPR-induced glucosylceramide level,[3]; +24 h,prevented glucosylceramide formation
same,Combination Index (C.I.),SMS-SB; 3 μM,> 1
same,Combination Index (C.I.),SMS-SB; 6 μM,> 1
same,Combination Index (C.I.),SMS-SB; 9 μM,1
same,number of ALL cell lines in which 4-HPR cytotoxicity was synergized,[12]; pediatric ALL cell lines,four of six
same,synergy of 4-HPR cytotoxicity (in words),[4],more potently
same,Combination Index (C.I.),"NALL-1; NALL-1, 3 μM",> 1
same,Combination Index (C.I.),"NALL-1; NALL-1, 6 μM",1
same,Combination Index (C.I.),"NALL-1; NALL-1, 9 μM",< 1
same,Combination Index (C.I.),NALM-6,< 1
same,ceramide,ALL cell lines,increased ceramide
same,glucosylceramide formation,ALL cell lines,decreased glucosylceramide formation
N[C@H]1CONC1=O [L-cycloserine],toxicity as single agents,neuroblastoma cell lines,proved toxic of themselves
same,effect on 4-HPR-induced ceramide,[17],prevented ceramide increase
same,effect on ceramide increase caused by 4-HPR treatment,[18],prevented the increase of ceramide
CCCCCCCCCCCCCCCC(=O)N[C@@H](CN1CCOCC1)[C@@H](O)c1ccccc1 [L-threo-PPMP],4-HPR-induced glycosylceramide increase,"[3]; drugs at 10 μM, preliminary",did not
"CCCCCCCCCC(=O)NC(CN1CCOCC1)C(O)c1ccccc1 (stereo not drawn) [PDMP, 1-phenyl-2-[decanoylamino]-3; morpholino-1-propanol]",anti-tumor effect,[19],cures
same,half-life,[20],approximately 1 hour
same,well tolerated dose,[21],≤ 120 mg/kg/day
"CCCCCCCCCCCCCCC[C@H](O)[C@@H](N)CO [safingol, L-threo-dihydrosphingosine]",effect on anti-tumor activity of 4-HPR,[22],significantly increase the anti-tumor activity of 4-HPR
fumonisin B,toxicity as single agents,neuroblastoma cell lines,proved toxic of themselves
same,effect on ceramide increase caused by 4-HPR treatment,[18],prevented the increase of ceramide
